How the values were obtained:
[1] = physchem; conditions: 0.1 m tetramethylammonium chloride
[2] = Cation titration followed by absorbance or fluorescence excitation spectra: Na⁺ binding
Protocol: (§1) • Footnote a: For molecular structures, see Fig. 1. • Footnote b: Except where otherwise noted, these dissociation constants were measured with the chelator dissolved in 0.1 M tetramethylammonium chloride, at a pH held high enough with 1-5 mM tris(hydroxymethyl)aminomethane for protonation to be insignificant. The absorbance spectrum, or the fluorescence excitation spectrum for those compounds (2GG, 2NN, 2OO, 2PP, 3NN) with acronyms was measured as a function of the concentration of cation added as a solid or concentrated aqueous solution of the halide salt. No correction has been made for the changing ionic strength of the solution, which started from 0.1 M and increased, but the absorbances and fluorescence amplitudes were applied for dilution of the dye and any slight quenching due to high concentrations of Cl⁻. • Footnote c: These protonation constants were determined in 0.1 M tetramethylammonium chloride, 10 mM tris(hydroxymethyl)aminomethane, titrated with 5 M H₃PO₄ to successively lower pH values measured with a Radiometer PHM84 meter. […] The first number is the wavelength in nanometers, followed in parentheses by 10⁻³ x the corresponding extinction coefficient, M⁻¹cm⁻¹. […] Emission maxima are not corrected for the spectral sensitivity of the emission detection. Quantum efficiencies were measured (13) by comparing the integral of the corrected emission spectrum with the corresponding integral for a solution of quinine bisulfate in 1 N H₂SO₄ of matched absorbance at the excitation wavelength.
(§2) Affinities for other cations were usually measured by titrating aqueous solutions of the indicator with metal chlorides added either as solid or from concentrated stock solutions, taking care to minimize dilution and correct for it. A convenient way to mass-produce premeasured micromole to millimole aliquots of solid NaCl or KCl was to pipet saline solutions into polypropylene micro test tubes and evaporate the water in an oven. The standard ionic background was again 100 mM tetramethylammonium chloride, usually with a few mM of tris(hydroxymethyl)-aminomethane base to hold the pH high enough (pH 8-9) to insure that protonation was negligible. This convenient titration procedure had the slight disadvantage that the ionic strength was not constant, especially when large quantities of a salt had to be added due to weak affinities. […] When constant ionic strength was desired, the chelator was made up at identical concentrations in matched solutions of NaCl, KCl, or tetramethylammonium chloride, then these stocks were mixed in the desired proportions. All measurements were made at room temperature (22°, ±2° C).

[3] = Proton dissociation constants in 0.1 M tetramethylammonium chloride; conditions: second value (second protonation), 10 mM Tris titrated with 5 M H₃PO₄
[4] = physchem
Protocol: The lowest curve ([Na⁺] = 0) was obtained with 5 µM SBFI in 130 mM KCl, 10 mM MOPS, KOH to pH 7.05, approximately 135 mM total K⁺. The highest curve ([Na⁺] = 135 mM) was analogously recorded from 5 µM SBFI in 130 mM NaCl, 10 mM MOPS, NaOH to pH 7.05. The intermediate curves from 1.35 to 94.5 mM Na⁺ were obtained by successively 1/100, 1/99, 3/98, 1/19, 1/9, 1/4, and 1/2 of the K⁺-rich SBFI solution by the SBFI in Na medium. The excitation bandwidth was 1.85 nm; emission was collected at 500 nm with 9.3 nm bandwidth. […] The lowest curve was obtained in 130 mM NaCl, 10 mM MOPS, NaOH to pH 7.05. The highest curve was in 130 mM KCl, 10 mM MOPS, KOH to pH 7.05. The intermediate curves with 13.5 to 112.5 mM K⁺ were obtained by iteratively replacing 1/10, 1/9, 1/6, 1/4, 1/3, and 1/2 of the low K⁺ medium by the 135 mM KCl solution of PBFP.
Proton dissociation constants of the chelators were measured by spectrophotometry or spectrofluorometry of buffered solutions, containing either 100 mM tetramethylammonium chloride as inert supporting electrolyte, or 121.5 mM K⁺, 13.5 mM Na⁺, and 1 mM Mg²⁺ to simulate the cation environment of vertebrate cytoplasm (14). […] When the chelators contained two protonatable nitrogens, the curve of absorbance or fluorescence versus pH was analyzed by computerized least-squares fitting to the equations for two arbitrary proton equilibria (15), with the added assumption that the two protonations each caused the same change in extinction coefficient or fluorescence. This assumption was based on the presence of two identical chromophores in each chelator and produced good fits to the experimental data.

[5] = UV absorbance spectra without and with saturating cation; type: physicochemical; conditions: for Absorbance maxima -Na⁺ (wavelength): 100 mM tetramethylammonium chloride plus 1-5 mM Tris; for Absorbance maxima -Na⁺ (wavelength) / Absorbance maxima -Na⁺ (extinction coefficient): no Na⁺; for Absorbance maxima +Na⁺ (wavelength): enough NaCl added (0.2-1 M) to saturate the Na⁺ binding; for Absorbance maxima -Na⁺ (extinction coefficient) / Absorbance maxima +Na⁺ (extinction coefficient) / Absorbance maxima +Na⁺, footnote l (extinction coefficient): number is 10⁻³ x the extinction coefficient; for Absorbance maxima -Na⁺ (extinction coefficient): lower limits for most compounds; for Absorbance maxima +Na⁺ (extinction coefficient): lower limits, saturating NaCl (0.2-1 M); for Absorbance maxima +Na⁺, footnote l (extinction coefficient) / Absorbance maxima +Na⁺, footnote l (wavelength): saturating K⁺ rather than Na⁺
Protocol: as §1
(§3) UV absorbance spectra were recorded initially on a Cary 210 and later on a Perkin-Elmer Lambda Array 3840 spectrophotometer. Fluorescence excitation and emission spectra and quantum efficiencies were measured on a Spex Fluorolog 111 as described previously (13).

[6] = Cation titration followed by absorbance or fluorescence excitation spectra: Mg²⁺ binding; conditions: 0.1 M tetramethylammonium chloride, 1-5 mM tris(hydroxymethyl)aminomethane, high pH; read-out: Dissociation constants (Kd) in mM for Mg²⁺
Protocol: as §1
as §2, with “proportions.” for “proportions. All measurements were made at room temperature (22°, ±2° C).”

[7] = Fluorescence excitation/emission spectra and quantum efficiency; type: physicochemical; conditions: for Emission maxima -Na⁺: 100 mM tetramethylammonium chloride; for Emission maxima -Na⁺ / Quantum efficiency -Na⁺: no Na⁺; for Emission maxima -Na⁺ / Emission maxima +Na⁺: not corrected for detector sensitivity; for Quantum efficiency -Na⁺ / Quantum efficiency +Na⁺: relative to quinine bisulfate in 1 N H₂SO₄ (0.55); for Emission maxima +Na⁺: saturating NaCl; for Quantum efficiency +Na⁺: saturating Na⁺; for Emission maxima +Na⁺, footnote l / Quantum efficiency +Na⁺, footnote l: saturating K⁺ rather than Na⁺
Protocol: as §1, §3

[8] = Cation titration followed by absorbance or fluorescence excitation spectra: Ca²⁺ binding; conditions: 0.1 M tetramethylammonium chloride, 1-5 mM tris(hydroxymethyl)aminomethane, high pH; read-out: Dissociation constants (Kd) in mM for Ca²⁺
Protocol: as §1, §2

[9] = Cation titration followed by absorbance or fluorescence excitation spectra: K⁺ binding; conditions: 0.1 M tetramethylammonium chloride, 1-5 mM tris(hydroxymethyl)aminomethane, high pH; read-out: Dissociation constants (Kd) in mM for K⁺
Protocol: as §1
Affinities for other cations were usually measured by titrating aqueous solutions of the indicator with metal chlorides added either as solid or from concentrated stock solutions, taking care to minimize dilution and correct for it. […] This convenient titration procedure had the slight disadvantage that the ionic strength was not constant, especially when large quantities of a salt had to be added due to weak affinities. […]

[10] = quinine bisulfate in 1 N H₂SO₄; assumed value; cited from earlier work
[11] = Solubility in water for spectrophotometry; type: physicochemical
[12] = 0.1 M tetramethylammonium chloride, 1-5 mM tris(hydroxymethyl)aminomethane, pH high enough for protonation to be insignificant, 22°, read-out: Dissociation constants (Kd) in mM for Na⁺

Row | pKa [1] | Kd [2, 12] [mM] | pKa [3] | pKa ([4]; 126 mm kcl, 14 mm nacl) | Absorbance maxima -Na⁺ (wavelength) [5] [nanometers] | Absorbance maxima +Na⁺ (wavelength) [5] [nanometers] | Absorbance maxima -Na⁺ (extinction coefficient) [5] [M⁻¹ cm⁻¹] | Absorbance maxima +Na⁺ (extinction coefficient) [5] [M⁻¹ cm⁻¹] | Kd [6] [mM] | Emission maxima -Na⁺ [7] [nanometers] | Emission maxima +Na⁺ [7] [nanometers] | Kd [8] [mM] | Quantum efficiency -Na⁺ [7] | Absorbance maxima +Na⁺, footnote l (extinction coefficient) [5] [M⁻¹ cm⁻¹] | Absorbance maxima +Na⁺, footnote l (wavelength) [5] [nanometers] | Kd [9] [mM] | Emission maxima +Na⁺, footnote l [7] | Quantum efficiency +Na⁺, footnote l [7] | Compound | other results
1 | 5.34 | 50 | 4.15 | 4.82 | 355 | 343 | 25000 | 27000 | 63 | 515 | 500 |  |  |  |  |  |  |  | COc1cc2cc(-c3ncc(C(=O)O)o3)oc2cc1N1CCOCCOCCN(c2cc3oc(-c4ncc(C(=O)O)o4)cc3cc2OC)CCOCC1 [Compound 2OO, N,N-bis-(2-(5-carboxyoxazol-2-yl)-5-methoxybenzofuran-6-yl)-diaza[15]-crown-5] | Na⁺ affinity ([2]; association constant, inert background cation (tetramethylammonium)): 20 M⁻¹; Kd ([2]; footnote h: 3.0 M ionic strength (3.0 M NaCl mixed with 3.0 M tetramethylammonium chloride), read-out: Dissociation constants (Kd) in mM for Na⁺): 22 mM; Quantum efficiency -Na⁺ ([7]; listed as 2OO (SBFO)): .14; Quantum efficiency -Na⁺ ([7]; listed as SBFO): 0.14; Quantum efficiency +Na⁺ ([7]; listed as 2OO (SBFO)): .44; Quantum efficiency +Na⁺ ([7]; listed as SBFO): 0.44
2 | 6.3 | 8.5 | 5.5 | 6.4 | 342 | 334 | 45500 | 51600 | 18 | 528 | 505 | 40 | .036 |  |  |  |  |  | COc1cc2cc(-c3ccc(C(=O)O)c(C(=O)O)c3)oc2cc1N1CCOCCOCCN(c2cc3oc(-c4ccc(C(=O)O)c(C(=O)O)c4)cc3cc2OC)CCOCC1 [Compound 2NN, N,N-bis-(2-(3,4-dicarboxyphenyl)-5-methoxybenzofuran-6-yl)-diaza[15]-crown-5] | Kd ([2]; summary statement, conditions not specified, read-out: dissociation constant (Na⁺), range achieved): 5 to 20 mM; Quantum efficiency +Na⁺ [7]: .091
3 |  |  |  | 6.68 | 344 |  | 23000 |  |  | 518 |  |  | .0075 | 25000 | 337 | 83 | 494^l nanometers | .12^l | COc1cc2cc(-c3ccc(C(=O)O)c(C(=O)O)c3)oc2cc1N1CCOCCOCCN(c2cc3oc(-c4ccc(C(=O)O)c(C(=O)O)c4)cc3cc2OC)CCOCCOCC1 [Compound 3NN, N,N-bis(2-(3,4-dicarboxyphenyl)-5-methoxybenzofuran-6-yl)-diaza[18]-crown-5] | 
4 |  | 21 |  |  | 350 |  | 42000 |  | 40 | 545 |  | 16 | .024 | 42000 | 344 | 8 | 504^l nanometers | .072^l | COc1cc2cc(-c3ccc(C(=O)O)cc3C(=O)O)oc2cc1N1CCOCCOCCN(c2cc3oc(-c4ccc(C(=O)O)cc4C(=O)O)cc3cc2OC)CCOCCOCC1 [Compound 3PP] | pKa [4]: 5.78
5 |  |  |  |  |  |  |  |  |  |  |  |  |  |  |  |  |  |  | C=C[C@H]1C[N@@]2CC[C@H]1C[C@H]2[C@H](O)c1ccnc2ccc(OC)cc12 [Quinine, quinine bisulfate] | quantum efficiency of reference standard [10]: 0.55
6 |  |  |  |  |  |  |  |  |  |  |  |  |  |  |  |  |  |  | N,N-bis-(1-acetamidoacridin-4-yl)-diaza[15]-crown-5 [Compound 2HH] | solubility in water [11]: insufficiently soluble in water for spectrophotometry

Reference: patent EP0369733A2, “Fluorescent indicator dyes for alkali metal cations, their preparation and use” (THE REGENTS OF THE UNIVERSITY OF CALIFORNIA, priority 1988, dated 1990)
